From patent US20230263754A1, “SOLID DISPERSIONS AND PARTICLES AND METHODS FOR CONTROLLED-RELEASE OF LIPID-SOLUBLE OR DISPESIBLE ACTIVES” (YISSUM RESEARCH DEVELOPMENT COMPANY OF THE HEBREW …, priority 2020, published 2023) come the findings set out here.

What all share (format): physicochemical
Series [1] in a line: Weight loss of DEET loaded microparticles at accelerated temperature. The conditions noted are these: 30% w/w DEET loaded microparticles, 1:10 SiO2-NH2:hydrogenated vegetable oil, accelerated temperature 50° C., 1 h. The procedure: Drug loading: DEET insect repellent 30% (w/w): 30% w/w of DEET was loaded into the microparticles. The selection of the 30% drug content was based on the dissolving the DEET into the molten oil and then cooled down. The DEET loading was examined for 1:1, 1:2, 1:10 and 1:20 ratio SiO2-NH2:hydrogenated vegetable oil. The DEET loaded particles were tested by weight loss in the DEET loaded 1:10 ratio was examined. Accelerated temperature of 50° C. was used. The weight sample was heated to […] and monitored the weight loss for 1 h. 2% decrease in the weight loss of the DEET loaded microparticles was observed.

Series [2] is described as follows: Fluazinam release from microparticles immersed in water. The note with it: hydrogenated vegetable oil particles decorated with modified silica nanoparticles, about 20 microns, room temperature.
Series [3] in a line: In vitro drug release from beeswax microspheres (Example 6). The procedure: 10 mg of microspheres were mixed with 5 mL of H2O or buffer and placed in the incubator. Three samples of each formulation were run at same conditions. A 3 mL samples were withdrawn at predetermined time intervals and an equal volume of fresh dissolution medium was replaced.
In vitro drug release for the obtained microspheres was studied in 5 ml of 10 mM buffer phosphate solution, pH 7.4 or in ddH2O at 37° C.

Series [4] can be described thus: Encapsulation efficiency and loading capacity of solid lipid microspheres (UV after dissolving in chloroform).
Experimental: The standard curves were constructed in a concentration range of 3-70 µg/mL in 10 mM PBS with R^2 value of 0.9993 and in a concentration range of 15-800 µg/mL in chloroform with R^2 value of 0.9935.
Encapsulation efficiency is percentage of drug encapsulated in the microspheres relating to initial quantity used. 10 mg of microspheres were dissolved in 4 mL of chloroform. The absorbance of the drugs was measured using a UV-VIS spectrophotometer after appropriate dilution in order to reach calibration curve concentrations. The measured absorbance was then converted to the amount of drug by using standard calibration curve.
The loading capacity is usually expressed as the ratio of the weight of entrapped drug and the total weight of the lipid and coating particles in percentage.
Drug entrapment efficiency is calculated in order to determine the amount of drug that is actually retained in the microparticles related to the amount of drug that was mixed with lipid before particles formation, and usually expressed as a percentage.
Series [5] is described as follows: Release of drugs from Pickering particles in phosphate buffer (Example 3). The note with it: for release behaviour from the Pickering particles in the release medium: FIGS. 6, buffer medium; for time within which almost all the drug was released: 1% (w/w) drug loaded Pickering dispersion, aqueous solution, room temperature. Here is the method:
Release of drugs from particles: Standard curve of drug was prepared in 10 mM phosphate buffer at pH 7.2. 10 mg of drug loaded lyophilized Pickering particles were added to 2 mL of buffer and the periodic isolated solution was analyzed by UV. The release was examined at room temperature. This was done in purpose to examine the drug release properties from the Pickering particles. The analysis of initial 30 min of release is considered as the burst release of drugs from the particles (FIGS. 6).
Release of ibuprofen from 1% (w/w) drug loaded Pickering dispersion. The release of ibuprofen was monitored by UV at the wavelength of 223 nm.
Release of ketoprofen from 1% (w/w) drug loaded Pickering dispersion. Standard curve of ketoprofen was prepared in 10 mM phosphate buffer at pH 7.2 at wavelength of 260 nm.
The particles were checked for the drug release with time. FIGS. 6 provides the release of the drug loaded Pickering particles in a buffer medium.

As for `CCN(CC)C(=O)c1cccc(C)c1` [DEET], the “decrease in weight (weight loss)” value in series [1] is 2%.
As to `O=[N+]([O-])c1cc(C(F)(F)F)c(Cl)c([N+](=O)[O-])c1Nc1ncc(C(F)(F)F)cc1Cl` [Fluazinam], the “release behaviour in water” value in series [2] is listed as “constantly releasing”.
`CCN(CC)CC(=O)Nc1c(C)cccc1C` [Lidocaine]: the “drug released in initial burst, first 24 h” value in series [3] (Lidocaine from Beeswax-Chitosan microspheres, 10 mM phosphate buffer pH 7.4, 37° C.) is reported as “about 70%”. Also, the entrapment efficacy in series [4] (Lidocaine in Beeswax-Chitosan particles (pH 6.5)) came out at 49%.
As for `CN(C)CCC[C@@]1(c2ccc(F)cc2)OCc2cc(C#N)ccc21` [escitalopram], the “release behaviour from the Pickering particles in the release medium” value in series [5] is listed as “sustained release”.
With `CC(C)Cc1ccc(C(C)C(=O)O)cc1` (stereo not drawn) [ibuprofen], the “time during which most of the drug was released” value in series [3] (Ibuprofen from Beeswax-Starch MSs, PBS pH 7.4, 37° C.) turned out to be 4 days. In series [3] (Ibuprofen from Beeswax-Starch MSs, ddH2O, 37° C.), the “further continuation of release in water compared with buffer” value was 7 days. For the same molecule, in series [5], the “time within which almost all the drug was released” value is at most 30 min and the “release behaviour from the Pickering particles in the release medium” value was “sustained release”. The molecule also gave a loading capacity in series [4] (Ibuprofen in Beeswax-Starch MSs, average of three experiments) of 15.7%. The entrapment efficiency in series [4] (Ibuprofen-loaded microspheres from beeswax and starch) was 71%.
On to `CC(C(=O)O)c1cccc(C(=O)c2ccccc2)c1` (stereo not drawn) [ketoprofen], for which the “time within which almost all the drug was released” value in series [5] is at most 30 min.
